A short description of data set [1]: Metabolic stability in vitro, rat liver microsomes. To be noted: maximal oral bioavailability calculated from microsomal half-life, 1 μM compound. It is filed as in vitro ADME. As for the experimental part:
(§1) The metabolic stability of test compounds in vitro was determined by incubating them at 1 μM with a suspension of liver microsomes in 100 mM phosphate buffer, pH7.4 (NaH2PO4xH2O+Na2HPO4x2H2O) at a protein concentration of 0.5 mg/mL and at 37° C. The reaction was activated by adding a co-factor mix containing 1.2 mg NADP, 3 IU glucose-6-phosphate dehydrogenase, 14.6 mg glucose-6-phosphate and 4.9 mg MgCl2 in phosphate buffer, pH 7.4. Organic solvent in the incubations was limited to <0.2% dimethylsulfoxide (DMSO) and <1% methanol. During incubation, the microsomal suspensions were continuously shaken and aliquots were taken at 2, 8, 16, 30, 45 and 60 min, to which equal volumes of cold methanol were immediately added. Samples were frozen at −20° C. over night, subsequently centrifuged for 15 minutes at 3000 rpm and the supernatant was analyzed with an Agilent 1200 HPLC-system with LCMS/MS detection.
(§2) The half-life of a test compound was determined from the concentration-time plot. From the half-life the intrinsic clearances were calculated. Together with the additional parameters liver blood flow, specific liver weight and microsomal protein content the hepatic in vivo blood clearance (CL) and the maximal oral bioavailability (Fmax) were calculated for the different species. […]

Data set [2] deals with HeLa human cervical tumor cells. Put plainly: HeLa cell proliferation assay (crystal violet). The data set is classed as cell-based. The note with it: 96 h, 4 days incubation, crystal violet staining, read-out: Inhibition of cell proliferation, cell Line: HeLa IC50. The protocol:
Cultivated tumor cells (MCF7, hormone dependent human mammary carcinoma cells, ATCC HTB22; NCI-H460, human non-small cell lung carcinoma cells, ATCC HTB-177; DU 145, hormone-independent human prostate carcinoma cells, ATCC HTB-81; HeLa-MaTu, human cervical carcinoma cells, EPO-GmbH, Berlin; HeLa-MaTu-ADR, multidrug-resistant human cervical carcinoma cells, EPO-GmbH, Berlin; HeLa human cervical tumor cells, ATCC CCL-2; B16F10 mouse melanoma cells, ATCC CRL-6475) were plated at a density of 5000 cells/well (MCF7, DU145, HeLa-MaTu-ADR), 3000 cells/well (NCI-H460, HeLa-MaTu, HeLa), or 1000 cells/well (B16F10) in a 96-well multititer plate in 200 μl of their respective growth medium supplemented 10% fetal calf serum. […] Cell proliferation was determined by staining the cells with crystal violet: the cells were fixed by adding 20 μl/measuring point of an 11% glutaric aldehyde solution for 15 minutes at room temperature. […] The extinction of the stained cells was determined by photometry at a wavelength of 595 nm. The change of cell number, in percent, was calculated by normalization of the measured values to the extinction values of the zero-point plate (=0%) and the extinction of the untreated (0 μm) cells (=100%). The […] values were determined by means of a 4 parameter fit using the company's own software. […]

Data set [3] deals with T1, human kinase Mps-1 (Homo sapiens, UniProt P33981).
T1 construct: N-terminally GST-tagged human full length recombinant Mps-1 kinase; GST (N); purchased Invitrogen, Karslruhe, Germany PV4071
T1 sequence (P33981 1-857): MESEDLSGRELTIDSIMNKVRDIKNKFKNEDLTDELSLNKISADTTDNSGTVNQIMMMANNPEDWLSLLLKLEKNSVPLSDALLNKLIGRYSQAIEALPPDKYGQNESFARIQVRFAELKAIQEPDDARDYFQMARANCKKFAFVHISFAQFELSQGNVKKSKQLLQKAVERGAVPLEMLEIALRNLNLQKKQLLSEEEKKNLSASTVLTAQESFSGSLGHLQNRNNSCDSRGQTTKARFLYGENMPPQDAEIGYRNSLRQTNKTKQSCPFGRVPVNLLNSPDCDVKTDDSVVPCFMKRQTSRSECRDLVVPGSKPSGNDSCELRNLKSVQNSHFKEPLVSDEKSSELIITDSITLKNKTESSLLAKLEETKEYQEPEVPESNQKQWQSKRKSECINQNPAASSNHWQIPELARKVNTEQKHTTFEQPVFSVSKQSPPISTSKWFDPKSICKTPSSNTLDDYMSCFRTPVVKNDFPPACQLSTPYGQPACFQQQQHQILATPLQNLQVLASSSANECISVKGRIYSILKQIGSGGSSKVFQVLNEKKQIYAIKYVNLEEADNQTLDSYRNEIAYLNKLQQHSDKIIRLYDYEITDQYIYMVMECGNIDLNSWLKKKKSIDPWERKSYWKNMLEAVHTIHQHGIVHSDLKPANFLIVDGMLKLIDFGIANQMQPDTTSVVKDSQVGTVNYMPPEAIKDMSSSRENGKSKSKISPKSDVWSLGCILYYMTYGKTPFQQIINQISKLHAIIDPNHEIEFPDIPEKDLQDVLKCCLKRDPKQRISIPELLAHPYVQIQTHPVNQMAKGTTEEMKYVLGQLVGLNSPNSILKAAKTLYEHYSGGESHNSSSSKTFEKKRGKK
Put plainly: Mps-1 kinase assay (TR-FRET). The data set is classed as biochemical. The protocol: The human kinase Mps-1 phosphorylates a biotinylated substrate peptide. Detection of the phosphorylated product is achieved by time-resolved fluorescence resonance energy transfer (TR-FRET) from Europium-labelled anti-phospho-Serine/Threonine antibody as donor to streptavidin labelled with cross-linked allophycocyanin (SA-XLent) as acceptor. Compounds are tested for their inhibition of the kinase activity.
N-terminally GST-tagged human full length recombinant Mps-1 kinase (purchased from Invitrogen, Karslruhe, Germany, cat. no PV4071) was used. […]
The resulting mixture was incubated 1 h at 22° C. to allow the binding of the phosphorylated peptide to the anti-phospho(Ser/Thr)-Europium-antibody. Subsequently the amount of phosphorylated substrate was evaluated by measurement of the resonance energy transfer from the Europium-labelled anti-phospho(Ser/Thr) antibody to the Streptavidin-XLent. Therefore, the fluorescence emissions at 620 nm and 665 nm after excitation at 350 nm was measured in a Viewlux TR-FRET reader (PerkinElmer LAS, Rodgau-Jugesheinn, Germany). The “blank-corrected normalized ratio” (a Viewlux specific readout, similar to the traditional ratio of the emissions at 665 nm and at 622 nm, in which blank and Eu-donor crosstalk are subtracted from the 665 nm signal before the ratio is calculated) was taken as the measure for the amount of phosphorylated substrate. […]

The nature of data set [4]: Metabolic stability in vitro, human liver microsomes. The data set is classed as in vitro ADME. To be noted: maximal oral bioavailability calculated from microsomal half-life, 1 μM compound. As for the experimental part: as §1, §2
The nature of data set [5]: Metabolic stability in vitro, dog liver microsomes. It is filed as in vitro ADME. To be noted: maximal oral bioavailability calculated from microsomal half-life, 1 μM compound. As for the experimental part:
as §1, §2

Molecules are shown by their SMILES. Where two headings read alike, the source gives them in different places. Some results are limits rather than exact numbers.

`COc1cc2c(cc1Nc1nc3ccc(-c4ccc(NC(=O)[C@H](C)c5ccc(F)cc5)cc4)cn3n1)CCS2(=O)=O` [Example01.01, (2R)-2-(4-fluorophenyl)-N-(4-{2-[(6-methoxy-1,1-dioxido-2,3-dihydro-1-benzothiophen-5-yl)amino][1,2,4]triazolo[1,5-a]pyridin-6-yl}phenyl)propanamide]: the “Rat liver microsomes; Fmax [%]” value in data set [1] is on record as 96%. In addition, the IC50 in data set [2] is under 400 nM; in data set [3] (10 μM ATP, read-out: Mps-1 Inhibition, IC50 (Assay with 10 μM ATP)) it was under 1 nM; in data set [3] (2 mM ATP, read-out: Mps-1 Inhibition, IC50 (Assay with 2 mM ATP)) it was 1.6 nM. The “Human liver microsomes; Fmax [%]” value in data set [4] was 83%. In addition, the “Dog liver microsomes; Fmax [%]” value in data set [5] is recorded as 65%.

The record behind these values is patent US20160264568A1, “SUBSTITUTED TRIAZOLOPYRIDINES HAVING ACTIVITY AS MPS-1 INHIBITORS” (BAYER PHARMA AKTIENGESELLSCHAFT, priority 2013, published 2016).
